5 compounds from ChEMBL document CHEMBL5108009, “Positron Emission Tomography (PET) Imaging Tracers for Serotonin Receptors” (J Med Chem, 2022) can be followed below.

Experiment [1] has as its target T1, 5-hydroxytryptamine receptor 1F (Homo sapiens, UniProt P30939). The experiment can be described thus: Binding affinity to human 5-HT1F assessed as inhibition constant.
The target in experiment [2] is T2, 5-hydroxytryptamine receptor 1D (Homo sapiens, UniProt P28221). Put plainly: Binding affinity to 5-HT1D (unknown origin) assessed as inhibition constant.
T2 sequence (P28221 whole entry): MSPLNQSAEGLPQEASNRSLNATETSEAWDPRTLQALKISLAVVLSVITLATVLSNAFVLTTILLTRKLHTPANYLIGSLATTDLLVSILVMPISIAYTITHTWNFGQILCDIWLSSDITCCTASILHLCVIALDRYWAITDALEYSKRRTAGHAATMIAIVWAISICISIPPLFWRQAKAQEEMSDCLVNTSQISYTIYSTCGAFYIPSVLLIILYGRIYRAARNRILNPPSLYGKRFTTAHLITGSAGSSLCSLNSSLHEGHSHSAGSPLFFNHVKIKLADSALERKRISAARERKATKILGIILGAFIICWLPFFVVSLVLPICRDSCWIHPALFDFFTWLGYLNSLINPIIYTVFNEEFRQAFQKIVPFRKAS
Experiment [3] concerns the target 5-hydroxytryptamine receptor 5A (Homo sapiens, UniProt P47898). The experiment can be described thus: Binding affinity to 5-HT5A receptor (unknown origin) assessed as inhibition constant.
Experiment [4] deals with T3, 5-hydroxytryptamine receptor 2C (Homo sapiens, UniProt P28335).
T3 sequence (P28335 whole entry): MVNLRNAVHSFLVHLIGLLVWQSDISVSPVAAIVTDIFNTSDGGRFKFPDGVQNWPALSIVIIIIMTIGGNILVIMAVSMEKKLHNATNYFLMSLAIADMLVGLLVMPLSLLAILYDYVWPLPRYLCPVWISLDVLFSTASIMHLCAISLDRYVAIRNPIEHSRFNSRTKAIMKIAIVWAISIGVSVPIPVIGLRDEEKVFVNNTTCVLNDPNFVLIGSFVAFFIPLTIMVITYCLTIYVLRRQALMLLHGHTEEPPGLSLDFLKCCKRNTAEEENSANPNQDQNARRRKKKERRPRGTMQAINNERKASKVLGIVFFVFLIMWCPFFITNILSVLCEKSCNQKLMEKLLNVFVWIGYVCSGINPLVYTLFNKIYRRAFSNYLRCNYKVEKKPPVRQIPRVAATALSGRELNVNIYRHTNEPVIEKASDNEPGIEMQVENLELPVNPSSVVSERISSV

Experiment [5] has as its target T4, 5-hydroxytryptamine receptor 7 (Homo sapiens, UniProt P34969).
Experiment [6] deals with 5-hydroxytryptamine receptor 2B (Homo sapiens, UniProt P41595).
Sequence of 5-hydroxytryptamine receptor 2B (P41595 whole entry): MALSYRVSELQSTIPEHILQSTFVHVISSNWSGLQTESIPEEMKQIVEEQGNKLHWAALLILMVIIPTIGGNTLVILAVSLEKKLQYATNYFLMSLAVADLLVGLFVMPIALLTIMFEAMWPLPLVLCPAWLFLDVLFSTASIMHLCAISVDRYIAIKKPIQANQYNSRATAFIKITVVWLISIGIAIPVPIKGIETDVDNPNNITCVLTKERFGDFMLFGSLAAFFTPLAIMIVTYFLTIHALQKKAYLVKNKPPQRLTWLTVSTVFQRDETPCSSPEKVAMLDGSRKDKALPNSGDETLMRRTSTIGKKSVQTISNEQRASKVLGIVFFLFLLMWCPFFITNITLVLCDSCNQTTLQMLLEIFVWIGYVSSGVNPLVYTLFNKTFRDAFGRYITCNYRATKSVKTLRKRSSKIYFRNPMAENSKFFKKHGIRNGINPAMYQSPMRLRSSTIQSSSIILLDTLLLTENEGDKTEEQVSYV
Experiment [7] deals with T5, 5-hydroxytryptamine receptor 1A (Homo sapiens, UniProt P08908).
T5 sequence (P08908 whole entry): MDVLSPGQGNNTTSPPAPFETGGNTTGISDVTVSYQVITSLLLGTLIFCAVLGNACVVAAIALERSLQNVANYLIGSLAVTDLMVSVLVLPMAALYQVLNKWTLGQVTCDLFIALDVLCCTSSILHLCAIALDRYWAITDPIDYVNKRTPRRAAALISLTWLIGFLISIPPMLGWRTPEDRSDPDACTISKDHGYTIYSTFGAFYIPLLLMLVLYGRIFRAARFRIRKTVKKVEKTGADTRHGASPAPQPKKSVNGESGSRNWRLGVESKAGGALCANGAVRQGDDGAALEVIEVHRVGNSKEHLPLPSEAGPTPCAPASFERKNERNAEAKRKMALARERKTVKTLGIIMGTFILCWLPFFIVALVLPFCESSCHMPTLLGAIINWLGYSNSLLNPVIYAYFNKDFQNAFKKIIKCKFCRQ

Experiment [8] addresses T1, 5-hydroxytryptamine receptor 1F. The experiment can be described thus: Binding affinity to human 5-HT1F assessed as inhibition constant incubated for 10 mins by radioligand binding assay.
In experiment [9] the target is 5-hydroxytryptamine receptor 1B (Homo sapiens, UniProt P28222).
Sequence of 5-hydroxytryptamine receptor 1B (P28222 whole entry): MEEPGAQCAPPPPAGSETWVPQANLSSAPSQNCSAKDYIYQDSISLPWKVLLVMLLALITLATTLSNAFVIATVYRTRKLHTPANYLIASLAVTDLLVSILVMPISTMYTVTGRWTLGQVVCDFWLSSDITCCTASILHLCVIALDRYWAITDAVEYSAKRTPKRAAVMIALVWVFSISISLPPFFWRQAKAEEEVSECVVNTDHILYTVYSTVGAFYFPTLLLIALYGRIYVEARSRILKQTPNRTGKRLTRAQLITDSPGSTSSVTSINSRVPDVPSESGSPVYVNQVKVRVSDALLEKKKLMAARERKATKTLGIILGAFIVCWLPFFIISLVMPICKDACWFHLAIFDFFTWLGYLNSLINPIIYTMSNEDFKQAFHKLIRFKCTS
In experiment [10] the target is T4, 5-hydroxytryptamine receptor 7. Put plainly: Binding affinity to 5-HT7 receptor (unknown origin) assessed as inhibition constant.
In experiment [11] the target is Sigma non-opioid intracellular receptor 1 (Homo sapiens, UniProt Q99720). The experiment can be described thus: Binding affinity to sigma 1 receptor (unknown origin) assessed as inhibition constant.
Sequence of Sigma non-opioid intracellular receptor 1 (Q99720 whole entry): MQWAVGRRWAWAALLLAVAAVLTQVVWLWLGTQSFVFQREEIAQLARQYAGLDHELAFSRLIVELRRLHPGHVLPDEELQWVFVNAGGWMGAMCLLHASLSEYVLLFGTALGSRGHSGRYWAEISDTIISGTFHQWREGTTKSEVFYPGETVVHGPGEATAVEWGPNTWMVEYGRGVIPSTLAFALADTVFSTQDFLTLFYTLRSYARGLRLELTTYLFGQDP
The target of experiment [12] is Sigma intracellular receptor 2 (Homo sapiens, UniProt Q5BJF2). Put plainly: Binding affinity to sigma 2 receptor (unknown origin) assessed as inhibition constant.
Sequence of Sigma intracellular receptor 2 (Q5BJF2 whole entry): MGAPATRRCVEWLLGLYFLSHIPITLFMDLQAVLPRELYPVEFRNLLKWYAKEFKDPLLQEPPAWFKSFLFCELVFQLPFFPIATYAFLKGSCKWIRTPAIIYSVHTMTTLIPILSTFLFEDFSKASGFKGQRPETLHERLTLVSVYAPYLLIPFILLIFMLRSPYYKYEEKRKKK
Experiment [13] deals with T2, 5-hydroxytryptamine receptor 1D. The experiment can be described thus: Binding affinity to human 5-HT1D expressed in CHO cells assessed as inhibition constant incubated for 1 hr by Cheng-Prusoff equation analysis. Format: cell-based.
The target in experiment [14] is T4, 5-hydroxytryptamine receptor 7. Put plainly: Binding affinity to human 5-HT7 receptor transfected by pcDNA3.1(+) vector in HEK293 cells assessed as inhibition constant by Cheng-Prusoff equation analysis. Format: cell-based.

T4 sequence (P34969 whole entry): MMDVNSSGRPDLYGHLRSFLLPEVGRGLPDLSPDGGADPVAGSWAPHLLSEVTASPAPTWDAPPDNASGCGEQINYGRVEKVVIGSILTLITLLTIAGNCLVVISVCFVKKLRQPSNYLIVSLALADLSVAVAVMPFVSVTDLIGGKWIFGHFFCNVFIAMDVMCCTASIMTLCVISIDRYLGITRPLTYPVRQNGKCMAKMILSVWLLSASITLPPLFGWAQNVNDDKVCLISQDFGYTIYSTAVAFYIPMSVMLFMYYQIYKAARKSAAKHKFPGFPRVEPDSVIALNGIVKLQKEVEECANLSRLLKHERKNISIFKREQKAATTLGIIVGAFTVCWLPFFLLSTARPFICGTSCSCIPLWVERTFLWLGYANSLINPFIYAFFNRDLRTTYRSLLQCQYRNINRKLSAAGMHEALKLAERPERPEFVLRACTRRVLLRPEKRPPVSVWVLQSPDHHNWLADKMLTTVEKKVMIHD
T1 sequence (P30939 whole entry): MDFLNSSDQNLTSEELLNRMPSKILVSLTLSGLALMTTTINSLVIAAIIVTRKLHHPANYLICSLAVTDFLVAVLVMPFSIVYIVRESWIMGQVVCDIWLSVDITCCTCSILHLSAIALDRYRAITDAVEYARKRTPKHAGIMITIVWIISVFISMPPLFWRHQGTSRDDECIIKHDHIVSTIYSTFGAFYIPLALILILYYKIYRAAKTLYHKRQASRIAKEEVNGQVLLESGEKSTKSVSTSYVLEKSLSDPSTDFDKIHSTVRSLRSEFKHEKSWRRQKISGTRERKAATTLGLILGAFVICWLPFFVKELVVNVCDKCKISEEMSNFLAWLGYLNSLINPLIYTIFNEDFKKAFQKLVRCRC
Sequence of 5-hydroxytryptamine receptor 5A (P47898 whole entry): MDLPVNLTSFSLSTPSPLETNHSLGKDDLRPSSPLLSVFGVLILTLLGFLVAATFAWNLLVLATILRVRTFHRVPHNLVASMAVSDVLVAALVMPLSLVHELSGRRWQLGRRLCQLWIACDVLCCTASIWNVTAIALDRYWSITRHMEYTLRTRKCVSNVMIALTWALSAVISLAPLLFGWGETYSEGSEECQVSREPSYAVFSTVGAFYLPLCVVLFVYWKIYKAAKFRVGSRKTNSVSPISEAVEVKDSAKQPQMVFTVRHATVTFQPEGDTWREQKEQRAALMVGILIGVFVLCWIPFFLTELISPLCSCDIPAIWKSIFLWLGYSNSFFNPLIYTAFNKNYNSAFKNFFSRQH

Turning to `CN(C)[C@@H]1CCc2[nH]c3ccc(NC(=O)c4ccc(F)cc4)cc3c2C1`, the Ki (commonly the dissociation constant of the complex between target and ligand, obtained from inhibition or displacement) in experiment [1] is 6 nM; in [2] it was over 500 nM; in experiment [3] it was over 500 nM; in experiment [4], over 500 nM; in [5], over 500 nM; in experiment [6], over 500 nM. In experiment [7], this compound displayed a Ki of over 500 nM.

As to `CN1CCC(C(=O)c2cccc(NC(=O)c3c(F)cc(F)cc3F)n2)CC1`, the Ki was 2.21 nM in [8]; over 592 nM in experiment [2]; over 595 nM in experiment [3]; over 594 nM in experiment [4]; over 590 nM in experiment [5]; over 593 nM in experiment [6]. Also, the figures for the Ki in experiment [7] and in experiment [9] were over 590 nM and over 591 nM, respectively.

As for `COc1cccc(S(=O)(=O)N2CCC[C@@H]2CCN2CCC(C)CC2)c1`, the inhibition constant (Ki) is 18 nM in [10], 9.2 nM in experiment [11] and 1.6 nM in experiment [12].

Regarding `CNC(=O)c1ccc2c(c1)CCO[C@H]2CCN1CCN(c2ccc(C(N)=O)cc2)CC1`, the figures for the inhibition constant Ki in [13] and in experiment [6] were 6 nM and over 18000 nM, respectively.

On to `COc1ccc(-c2c([N+](=O)[O-])ccn2C)cc1`, for which, in experiment [14], the Ki stood at 16.8 nM.
